Columns and labels:
[1] = tested on: 4T1-Luc2 cells; test: In vitro dead/alive cell binding assay (fluorescence and γ-counting); format: cell-based, mouse; conditions: indium-111 labeled, 100 nM, 2.5 MBq/nmol, EtOH-killed or alive 4T1-Luc2 cells, γ-counting
Protocol: The 4T1-Luc2 cells were cultured in RPMI-1640 medium containing 10% fetal bovine, penicillin (100 U/mL), and streptomycin ([…]) 37 °C under a humidified atmosphere with 5% CO2. The cells were seeded in 24 well plates (1 × 10^5 cells per well). The next day, the cells were killed with EtOH (70%, 50 μL) or kept alive and incubated for 30 min at 37 °C with 100 nM of the NACAs in culturing medium. The plate was then imaged on an Odyssey (Li-Cor, 800 nm laser intensity 5.0).
Similarly, these killed and alive cells were incubated with the indium-111 labeled NACAs (100 nM, 2.5 MBq/nmol) in culturing medium. The cells were washed with PBS and collected with NaOH (1.0 M) for γ-counting. These experiments were performed as triplicates.

[2] = tested on: 4T1-Luc2 tumor-bearing mice; test: Ex vivo biodistribution in 4T1-Luc2 tumor-bearing mice; parameters: species or system mouse; conditions: for Tumor to blood ratio / Tumor to muscle ratio: 4T1-Luc2 tumors; for Blood uptake / Bone marrow uptake / Bone uptake / Brain uptake / Colon uptake / Heart uptake / Kidneys uptake / Liver uptake / Lung uptake / Lymph nodes uptake / Muscle uptake / Pancreas uptake / Skin uptake / Small intestine uptake / Spleen uptake / 4T1-Luc2 Tumors uptake: ±SEM; for Blood uptake / Bone marrow uptake / Bone uptake / Brain uptake / Colon uptake / Heart uptake / Kidneys uptake / Liver uptake / Lung uptake / Lymph nodes uptake / Muscle uptake / Pancreas uptake / Skin uptake / Small intestine uptake / Spleen uptake: n = 4; for 4T1-Luc2 Tumors uptake: n = 8
Protocol: Female BALB/cAnNRj-nude mice (six to eight weeks old) were housed in ventilated cages in groups of four to six mice and were provided standard laboratory animal food pellets and water ad libitum. One week after arrival, tumor cells were injected bilaterally on the shoulders. Tumor growth was monitored three days per week with a caliper. All groups consisted of four mice with bilateral tumors.
The 4T1-Luc2 cells (1.0 × 10^5) suspended in 15 µL PBS were inoculated bilaterally in 16 mice in four groups of four animals each. […] First, FLI imaging was performed with a 730 nm excitation and 760 nm emission filter for 400 ms with 4 × 4 binning. Then, the mice received an intraperitoneal injection of D-luciferin (150 mg/kg) maintaining the position of the mice in the bed unaltered, and BLI imaging was performed with an open filter for 400 ms with 4 × 4 binning. Full body (head to tail base) SPECT images of the 5 cm axial field of view were obtained over a total scan time of 30 min, followed by a 2 min full-body CT. After imaging, the mice were euthanized for ex vivo analysis.
(§1) After the final imaging experiments, the mice were sacrificed by cervical dislocation, tumors and organs were collected, weighted, and activity was accurately quantified by γ-counting to determine radioactivity uptake in the percentage of injected dose per gram (%ID/g). After γ-counting, the tumors were frozen in liquid nitrogen and stored at −80 °C overnight. Adjacent cryosections (10 µm) were prepared of the tumor centers for autoradiography. The sections were stored at −20 °C for the radioactivity to decay, before 800 nm fluorescence imaging and histochemical dead cell staining.

[3] = tested on: MCF7-Luc2 tumors; test: Tumor uptake in doxorubicin- or saline-treated MCF7-Luc2 tumor-bearing mice; format: in vivo, mouse; conditions: 24 h p.i., ±SEM
Protocol: The quadruple modality imaging procedure is illustrated in Figure S21. The tumor-bearing mice were injected with [^111In]3 (20 MBq, 2 nmol) in 200 µL PBS into the tail vein. The following day, the mice fasted for four hours before they were injected with [^18F]FDG (10 MBq, 200 µL) in PBS. At 24 h p.i. of [^111In]3 and 1 h p.i. of [^18F]FDG, FLI imaging was performed with a 730 nm excitation and 760 nm emission filter for 400 ms with 4 × 4 binning. Then, the mice received an intraperitoneal injection of D-luciferin (150 mg/kg) maintaining the position of the mice in the bed unaltered. During the onset of the bioluminescence signal, PET/SPECT imaging was performed of the tumors with a 2 cm axial field of view over a total scan time of 30 min, followed by a 2 min full-body CT. Finally, BLI imaging was performed with an open filter for 400 ms with 4 × 4 binning. Imaging was performed under isoflurane anesthesia whilst maintaining the body temperature constant.
Six mice were inoculated bilaterally with MCF7-Luc2 cells (3.0 × 10^6), suspended in 30 µL PBS:Matrigel (1:1; v/v). On days 14, 16, and 18 after inoculation, the tumor-bearing mice received either doxorubicin (5 mg/kg, Janssen Pharmaceuticals, Beerse, Belgium) or a saline solution via i.v. injection. On days 21 and 22 after inoculation, the mice underwent the FLI, BLI, and PET/SPECT/CT imaging procedure (vide supra).
as §1

Structure (SMILES): CC1(C)C(=CC=C2CCCC(C=CC3=[N+](CCCCCC(=O)NCCCC[C@H](NC(=O)CCCc4ccc(I)cc4)C(=O)NCc4ccc(CNC(=O)CN5CCN(CC(=O)[O-])CCN(CC(=O)[O-])CCN(CC(=O)[O-])CC5)cc4)c4ccc(S(=O)(=O)O)cc4C3(C)C)=C2Oc2ccc(S(=O)(=O)O)cc2)N(CCCCS(=O)(=O)O)c2ccc(S(=O)(=O)O)cc21.[111In+3] [[^111In]3]
- dead/alive cell binding, radioactivity [1]: increased as compared to [^111In]1
- excretion route ([2]; 4T1-Luc2 tumor-bearing mice, from biodistribution): predominately excreted via the renal tract
- blood half-life ([2]; 4T1-Luc2 tumor-bearing mice, i.v.): 9 h
- Tumor to blood ratio ([2]; 6 h p.i.): 0.91±0.05
- Tumor to muscle ratio ([2]; 6 h p.i.): 3.19±0.43
- Blood uptake ([2]; 6 h p.i., i.v.): 4.34±0.22 %ID/g
- Bone marrow uptake ([2]; 6 h p.i., i.v.): 1.42±0.87 %ID/g
- Bone uptake ([2]; 6 h p.i., i.v.): 1.63±0.16 %ID/g
- Brain uptake ([2]; 6 h p.i., i.v.): 0.14±0.03 %ID/g
- Colon uptake ([2]; 6 h p.i., i.v.): 1.60±0.13 %ID/g
- Heart uptake ([2]; 6 h p.i., i.v.): 2.32±0.11 %ID/g
- Kidneys uptake ([2]; 6 h p.i., i.v.): 6.04±1.13 %ID/g
- Liver uptake ([2]; 6 h p.i., i.v.): 2.24±0.28 %ID/g
- Lung uptake ([2]; 6 h p.i., i.v.): 3.29±0.25 %ID/g
- Lymph nodes uptake ([2]; 6 h p.i., i.v.): 3.91±0.97 %ID/g
- Muscle uptake ([2]; 6 h p.i., i.v.): 1.31±0.20 %ID/g
- Pancreas uptake ([2]; 6 h p.i., i.v.): 1.33±0.13 %ID/g
- Skin uptake ([2]; 6 h p.i., i.v.): 2.59±0.09 %ID/g
- Small intestine uptake ([2]; 6 h p.i., i.v.): 0.93±0.07 %ID/g
- Spleen uptake ([2]; 6 h p.i., i.v.): 1.87±0.18 %ID/g
- 4T1-Luc2 Tumors uptake ([2]; 6 h p.i., i.v.): 3.94±0.19 %ID/g
- Tumor to blood ratio ([2]; 24 h p.i.): 2.50 ± 0.20
- Tumor to muscle ratio ([2]; 24 h p.i.): 7.26±0.89
- Blood uptake ([2]; 24 h p.i., i.v.): 1.31±0.05 %ID/g
- Bone uptake ([2]; 24 h p.i., i.v.): 0.93±0.13 %ID/g
- Brain uptake ([2]; 24 h p.i., i.v.): 0.07±0.00 %ID/g
- Colon uptake ([2]; 24 h p.i., i.v.): 0.70±0.07 %ID/g
- Heart uptake ([2]; 24 h p.i., i.v.): 1.22±0.06 %ID/g
- Liver uptake ([2]; 24 h p.i., i.v.): 1.20±0.01 %ID/g
- Lung uptake ([2]; 24 h p.i., i.v.): 1.20±0.04 %ID/g
- Lymph nodes uptake ([2]; 24 h p.i., i.v.): 2.42±0.18 %ID/g
- Muscle uptake ([2]; 24 h p.i., i.v.): 0.46±0.03 %ID/g
- Pancreas uptake ([2]; 24 h p.i., i.v.): 0.65±0.05 %ID/g
- Skin uptake ([2]; 24 h p.i., i.v.): 1.83±0.29 %ID/g
- Small intestine uptake ([2]; 24 h p.i., i.v.): 0.53±0.05 %ID/g
- Spleen uptake ([2]; 24 h p.i., i.v.): 1.45±0.03 %ID/g
- 4T1-Luc2 Tumors uptake ([2]; 24 h p.i., i.v.): 3.27±0.25 %ID/g
- Tumor to blood ratio ([2]; 48 h p.i.): 4.54±0.45
- Tumor to muscle ratio ([2]; 48 h p.i.): 7.27±0.34
- Blood uptake ([2]; 48 h p.i., i.v.): 0.58±0.01 %ID/g
- Bone uptake ([2]; 48 h p.i., i.v.): 0.74±0.04 %ID/g
- Brain uptake ([2]; 48 h p.i., i.v.): 0.04±0.00 %ID/g
- Colon uptake ([2]; 48 h p.i., i.v.): 0.37±0.02 %ID/g
- Heart uptake ([2]; 48 h p.i., i.v.): 0.78±0.01 %ID/g
- Kidneys uptake ([2]; 48 h p.i., i.v.): 8.31±0.96 %ID/g
- Liver uptake ([2]; 48 h p.i., i.v.): 0.90±0.04 %ID/g
- Lung uptake ([2]; 48 h p.i., i.v.): 0.76±0.03 %ID/g
- Lymph nodes uptake ([2]; 48 h p.i., i.v.): 3.30±0.62 %ID/g
- Muscle uptake ([2]; 48 h p.i., i.v.): 0.36±0.03 %ID/g
- Pancreas uptake ([2]; 48 h p.i., i.v.): 0.48±0.04 %ID/g
- Skin uptake ([2]; 48 h p.i., i.v.): 1.46±0.03 %ID/g
- Small intestine uptake ([2]; 48 h p.i., i.v.): 0.33±0.01 %ID/g
- Spleen uptake ([2]; 48 h p.i., i.v.): 1.19±0.07 %ID/g
- 4T1-Luc2 Tumors uptake ([2]; 48 h p.i., i.v.): 2.62±0.23 %ID/g
- Tumor to blood ratio ([2]; 72 h p.i.): 7.36±0.93
- Tumor to muscle ratio ([2]; 72 h p.i.): 9.10±1.58
- Blood uptake ([2]; 72 h p.i., i.v.): 0.31±0.03 %ID/g
- Bone marrow uptake ([2]; 72 h p.i., i.v.): 2.25±0.65 %ID/g
- Bone uptake ([2]; 72 h p.i., i.v.): 0.51±0.05 %ID/g
- Brain uptake ([2]; 72 h p.i., i.v.): 0.03±0.00 %ID/g
- Colon uptake ([2]; 72 h p.i., i.v.): 0.23±0.02 %ID/g
- Heart uptake ([2]; 72 h p.i., i.v.): 0.63±0.02 %ID/g
- Kidneys uptake ([2]; 72 h p.i., i.v.): 5.72±0.49 %ID/g
- Liver uptake ([2]; 72 h p.i., i.v.): 0.83±0.04 %ID/g
- Lung uptake ([2]; 72 h p.i., i.v.): 0.56±0.05 %ID/g
- Lymph nodes uptake ([2]; 72 h p.i., i.v.): 2.39±0.25 %ID/g
- Muscle uptake ([2]; 72 h p.i., i.v.): 0.26±0.03 %ID/g
- Pancreas uptake ([2]; 72 h p.i., i.v.): 0.32±0.02 %ID/g
- Skin uptake ([2]; 72 h p.i., i.v.): 1.52±0.09 %ID/g
- Small intestine uptake ([2]; 72 h p.i., i.v.): 0.20±0.02 %ID/g
- Spleen uptake ([2]; 72 h p.i., i.v.): 1.10±0.18 %ID/g
- 4T1-Luc2 Tumors uptake ([2]; 72 h p.i., i.v.): 2.25±0.64 %ID/g
- ex vivo colocalization with dead cells (autoradiography, NIR fluorescence, TUNEL) ([2]; adjacent sections of 4T1-Luc2 tumors): specific binding of the tracer to necrotic tumor regions
- tumor uptake of [111In]3 ([3]; after doxorubicin treatment (5 mg/kg i.v., 3 injections)): 2.25 ± 0.16 %ID/g
- tumor uptake of [111In]3 ([3]; after saline treatment (control)): 1.74 ± 0.08 %ID/g

From publication PMC8870237, “Improved Multimodal Tumor Necrosis Imaging with IRDye800CW-DOTA Conjugated to an Albumin-Binding Domain” (Cancers, 2022)
